From patent US11389449B2, “Treatment of metabolic syndrome with an sGC stimulator” (Cyclerion Therapeutics, Inc., priority 2017, dated 2022) come the findings set out here.

This test has as its system ZSF1 obese rats. Description: Oral glucose tolerance test (OGTT) and fasting glucose in ZSF1 rats at week 10. It is filed as in vivo, rat. The procedure: Male ZSF1 rats (body weight 400-430 grams (lean control) and 500-605 grams (obese) at baseline) were used for this study. All animals were housed in a room under controlled conditions of temperature (72±8° F.), relative humidity of 30-70% and a 12-hour light-dark cycle (lights on at 6:00 AM and off at 6:00 PM) at a fully AAALAC accredited, USDA registered and OLAW assured laboratory animal research facility. All animals were allowed free access to rodent chow (Purina 5008+/−test articles) and water (+/−enalapril).
Blood and 24-hour urine samples were obtained from all animals at day 0 (15 weeks of age; prior to the initiation of enalapril treatment). Animals in Groups 3, 7, 8 and 9 were placed on drinking water containing enalapril and kept on Purina 5008 rodent chow (C13000). Animals in Group 1, 2, 4, 5 and 6 were kept on Purina 5008 rodent chow and drinking water. Ten days after the initiation of enalapril treatment, blood and 24-hour urine samples were collected from all animals. After day 10 blood and urine collections, animals in Groups 4, 5 and 6 received Compound I at 1, 3 and 10 mg/kg/day, respectively for 11 weeks. In addition to enalapril treatment, animals in Groups 7, 8 and 9 received Compound I at 1, 3 and 10 mg/kg/day, respectively for an additional 11 weeks.
10 weeks after the initiation of Compound I treatment, animals (27 weeks of age) were fasted for 18 hours. Serum samples were collected for the measurement of fasting insulin levels. Serum insulin levels were determined using the Rat Insulin ELISA kit (Cat #ELR-Insulin, RayBiotech, Inc.)
For OGTT, animals were given glucose solution (50% Dextrose) at 2 g/kg via oral gavage. Blood samples were collected prior to oral glucose administration (0 minute) and 30, 60, 90, 120 and 180 minutes after administration. Blood glucose levels were measured using a standard blood glucose monitoring system (AlphaTRAK). The blood glucose reading at time 0 (prior to glucose administration) corresponds to the fasting glucose measurement.
The data are expressed as mean±SEM. […] One-tailed tests were used for comparison of variables. Statistical significance is indicated by P values less than 0.05.

As for `OC(CNc1nc(-c2cc(-c3ccon3)n(Cc3ccccc3F)n2)ncc1F)(C(F)(F)F)C(F)(F)F` [Compound I], under “Compound I 1 mpk”, the “Fasting Blood Glucose (0 minute)” value is 267 ± 38 mg/dL, the “OGTT Area Under Curve (AUC)” value is on record as 84945 ± 5344, the “OGTT Blood Glucose 120 minutes” value came to 475 ± 33 mg/dL and the “OGTT Blood Glucose 180 minutes” value worked out at 398 ± 30 mg/dL. Moreover, where the note is “Compound I 3 mpk”, the “Fasting Blood Glucose (0 minute)” value was determined as 202 ± 10 mg/dL, the “OGTT Area Under Curve (AUC)” value came out at 77402 ± 3526, the “OGTT Blood Glucose 120 minutes” value was 424 ± 19 mg/dL and the “OGTT Blood Glucose 180 minutes” value amounted to 355 ± 24 mg/dL. In addition, under “Compound I 10 mpk”, the “Fasting Blood Glucose (0 minute)” value is listed as 194 ± 9 mg/dL, the “OGTT Area Under Curve (AUC)” value was 77090 ± 1817, the “OGTT Blood Glucose 120 minutes” value stood at 421 ± 11 mg/dL and the “OGTT Blood Glucose 180 minutes” value came out at 385 ± 14 mg/dL.
